Measurements from patent US10864215B2, “Use of phosphoinositide 3-kinase inhibitors for treatment of vascular malformations” (MEMORIAL SLOAN-KETTERING CANCER CENTER, priority 2015, dated 2020).
“Also recorded” adds a separate entry of the source.

Experiments:
[1] = system: PIK3CA^CAG-CreER VM-derived allografts; experiment: PIK3CA^CAG-CreER VM-derived allografts in nude mice, oral treatment; format: in vivo; conditions: for VM volume / apoptosis (cleaved caspase 3 in CD31-positive cells) / proliferation (BrdU incorporation in CD31-positive cells): allografts in nude mice, daily p.o., one week, BYL719 50 mg×kg^−1, everolimus 10 mg×kg^−1, propranolol 40 mg×kg^−1
Protocol: For allograft studies, vascular lesions isolated from PIK3CA^CAG-CreER mice were rinsed with ice cold PBS, minced, resuspended with cold 1:1 DMEM/Matrigel, and injected subcutaneously in six-week-old female athymic Foxn1^nu nude mice. […] The following formula was applied:
[formula] After one week of treatment, VM were measured and harvested for further analysis. VM volume was calculated using the following formula: […]
(§1) IHC and IF stainings were performed using Discovery XT processor (Ventana Medical Systems) at the Molecular Cytology Core (MSKCC). Tissue sections were deparaffinized with EZPrep buffer (Ventana Medical Systems), antigen retrieval was performed with CC1 buffer (Ventana Medical Systems). Sections were blocked for 30 minutes with Background Buster solution (Innovex) or 10% normal rabbit serum (for LYVE-1 antibody) followed by avidin/biotin blocking for 8 minutes. Sections were stained with the following antibodies: CD31: (Dianova, DIA-310, 1 μg×mL^−1) for 5 hours, followed by 60 minutes incubation with biotinylated goat anti-rat IgG (Vector labs, PK-4004) at 1:200 dilution. The detection was performed with Streptavidin-HRP D (Ventana Medical Systems), followed by incubation with Alexa Fluor 488 (Invitrogen, T20922); BrdU: sections were pretreated with Protease K (5 μg×mL^−1) and incubated with anti-BrdU (Roche, 1170376, 1 μg×mL^−1) for 5 hours, followed by 60 minutes incubation with biotinylated horse anti-mouse IgG (Vector Labs, MKB-22258). The detection was performed with Streptavidin-HRP D (Ventana Medical Systems), followed by incubation with Alexa Fluor 594 (Invitrogen, T20935). When two markers were used, stainings were performed consecutively according to the procedure described above. After staining, slides were counterstained with DAPI (Sigma, D9542, 5 μg×mL^−1) for 10 min and coverslipped with Mowiol. Antibodies were used as follows: GLUT-1: Sections were incubated with anti-GLUT-1 antibody (Chemicon, AB1340, 0.5 μg×mL^−1) for 4 hours, followed by 60 minutes incubation with biotinylated goat anti-rabbit IgG (Vector labs, PK6101) at 1:200 dilution; LYVE-1: Sections were incubated with anti-LYVE-1 antibody (R&D Systems, AF2125, 1 μg×mL^−1) for 3 hours, followed by 60 minutes incubation with biotinylated rabbit anti-goat IgG (Vector, BA-5000) at 1:200 dilution.; and WT-1: Sections were incubated with anti-WT-1 antibody (Abcam, Ab89901, 1:50 dilution) for 1 hour, followed by 60 minutes incubation with biotinylated rabbit anti-goat IgG (Vector, BA-5000) at 1:200 dilution. For GLUT-1, LYVE-1, and WT-1 IHC, detection was performed with DAB detection kit (Ventana Medical Systems) according to manufacturer instructions, followed by counterstaining with hematoxylin (Ventana Medical Systems) and coverslipped with Permount (Fisher Scientific).

[2] = system: PIK3CA^CAG-CreER VM-derived allografts; experiment: VM allografts treated topically with BYL719 1% (w/w) cream; format: in vivo, mice; conditions: topical, daily, BYL719 1% (w/w) in two cream formulations (free and soluble BYL719), 3 weeks
Protocol: For the formulation of topical preparations, the cream base Versatile™ (Fargon) was used, which allows the incorporation of active principles and has the ability to vanish rapidly into the skin of the mice. Two different formulations using BYL719 at 1% (w/w) were prepared as follows. Free BYL719: This formulation was generated by mixing BYL719 in powder with the base cream and homogenized using an Ultra-Turrax to achieve a similar distribution of the active principle. Soluble BYL719: For this formula, BYL719 powder was dissolved in a small volume of DMSO (400 mg×mL^−1). This concentrated solution was then incorporated into the base cream with gentle agitation, achieving a homogeneous distribution of the active principle. The topical formulations were applied into the mice lesions at daily-basis and VM growth was assessed as described above.

[3] = system: PIK3CA^Tie2-Cre embryos; experiment: Treatment of pregnant PIK3CA^Tie2-Cre mice, embryo vascular phenotype; format: in vivo
Protocol: as §1, with “For the treatment of pregnant PIK3CA^Tie2-Cre mice, BYL719 was administered orally three times at E7.5, E8.5, and E9.5. Two hours after the last treatment, embryos were harvested and characterized. IHC and” for “IHC and”

[4] = system: ANG2; experiment: ANG2 mRNA (RT-qPCR) and protein (ELISA) in PIK3CA^H1047R ECs; format: cell-based, human; conditions: serum-starved, treated overnight, BYL719 1 μM, MK2206 1 μM, Everolimus 50 nM; for ANG2 protein expression: ELISA; for ANG2 mRNA expression: RT-qPCR
[5] = system: phosphorylated AKT (T308 and S473); experiment: Western blot of HUVEC cells expressing TEK L914F; format: cell-based, human; conditions: HUVEC stably expressing TEK L914F, treated 4 hours
Protocol: FIGS. 27A-27B. Treatment of VM with PI3K inhibitors. (A) Western blot of HUVEC cells transduced with TEK L914F mutation and probed with the indicated antibodies. Cells were treated for 4 hours with the indicated doses of BYL719. (B) Representative images of the allograft VM treated with the topical formulation of BYL719. Free and soluble refer to the two different preparations of the topical formula. Arrows indicate the area affected by the VM allograft.
Proteins were extracted using RIPA buffer and Western blot was performed usim standard methods. Antibodies for Western blot were: pAKT (S473) (Cell Signaling; 4060), pAKT (T308) (Cell Signaling; 2965), AKT (Cell Signaling; 9272), pS6K (T389) (Cell Signaling; 9205), S6K (Cell Signaling; 2708), pS6 (S240/4) (Cell Signaling; 5364), pS6 (S235/6) (Cell Signaling; 4858), S6 (Cell Signaling; 2217), actin (Cell Signaling; 4970). Tube formation assay was performed using Matrigel-coated 48 multiwells as a substrate. 10^5 EC were seeded in EBM-2 media without FBS and analyzed after 6 hours for tube formation.

[6] = VVM in nude mice, BYL719 50 mg×kg-1 daily p.o.
[7] = pregnant mice, BYL719 50 mg×kg^−1 p.o., 48, 24 and 2 hours before harvest

Structure (SMILES)	phospho-AKT (S473) levels [1, 6]	phospho-S6RP (S240/4) levels [1, 6]	VM volume [1]	apoptosis (cleaved caspase 3 in CD31-positive cells) [1]	proliferation (BrdU incorporation in CD31-positive cells) [1]	regression of skin lesions (VM volume) [2]	meningeal, cardinal vein and dorsal aorta blood vessel morphology (histology, CD31 coronal sections) ([3]; pregnant mice treated, E9.5 embryos)	Phospho-AKT staining in PIK3CA^Tie2-Cre and PIK3CA^WT embryos ([3]; pregnant mice treated, versus untreated control embryos)	cephalic and intersomitic small blood vessel formation (CD31 whole-mount staining) [3, 7]	overall body size of PIK3CA^Tie2-Cre E9.5 embryos [3, 7]	ANG2 protein expression [4]	ANG2 mRNA expression [4]	amount of phosphorylated AKT (T308 and S473) [5]
Cc1nc(NC(=O)N2CCC[C@H]2C(N)=O)sc1-c1ccnc(C(C)(C)C(F)(F)F)c1 [BYL719]	decrease	decrease	decrease in VM volume	increased apoptosis	decrease in proliferation; also recorded: reduced proliferation	rapid and sustained regression of skin lesions	reestablished meningeal, cardinal vein, and dorsal aorta blood vessels morphology	strong reduction	restored cephalic and intersomitic small blood vessel formation	comparable to PIK3CA^WT littermates	able to rescue	able to rescue	decreased
Cl.Cl.NC1(c2ccc(-c3nc4ccn5c(=O)[nH]nc5c4cc3-c3ccccc3)cc2)CCC1 [MK2206, 8-[4-(1-aminocyclobutyl)phenyl]-9-phenyl-1,2,4-triazolo[3,4-f][1,6]naphthyridin-3(2H)-one, dihydrochloride]	–	–	–	–	–	–	–	–	–	–	able to rescue	able to rescue	–
CO[C@H]1C[C@@H]2CC[C@@H](C)[C@@](O)(O2)C(=O)C(=O)N2CCCC[C@H]2C(=O)O[C@H]([C@H](C)C[C@@H]2CC[C@@H](OCCO)[C@H](OC)C2)CC(=O)[C@H](C)/C=C(\C)[C@@H](O)[C@@H](OC)C(=O)[C@H](C)C[C@H](C)/C=C/C=C/C=C/1C [everolimus]	–	–	partially decreased VM size; also recorded: greatest growth inhibition	did not increase apoptosis	partially decreased	–	–	–	–	–	–	–	–
